In data set [1] the target is T1, thrombin (Homo sapiens, UniProt P00734). As to the kind of experiment: dissociation constant of the complex with thrombin. The class given is binding. The conditions noted are these: read-out: dissociations constant Ki of the complex with thrombin.
For data set [2], the system named is other proteinases of the blood clotting cascade. As to the kind of experiment: specificity against proteinases of the blood clotting cascade. The class given is biochemical.
The target in data set [3] is T1, thrombin. As to the kind of experiment: specific antithrombin activity. The class given is biochemical.

Broadly, the Ki is the dissociation constant of the complex between target and ligand, obtained from inhibition or displacement. Take hirudin: the Ki on thrombin [1] was around 0.03 nM. In addition, the “inhibition of other proteinases of the blood clotting cascade” value in data set [2] is listed as “inhibits no other proteinases of the blood clotting cascade”.

On to hirudin-PA, for which the Ki on thrombin [1] amounted to 0.04 nM. For the same substance, the specific antithrombin activity with thrombin [3] is given as 680-720 IU/mg.

Values taken from US4767742A, “Hirudin-PA and its derivatives, process for manufacturing these and the use of these substances” (Plantorgan-Werk Heinrich G. F. Christensen, KG, priority 1984, dated 1988).
